Data taken from US20110055943A1, “NOVEL THERAPEUTIC TARGETS IN INFLAMMATORY BOWEL DISEASE” (SALIX PHARMACEUTICALS, LTD., priority 2007, published 2011).

Assays:
in vivo = assay type: in vivo; conditions: mouse, in vivo, po, 10 mg/kg
Procedure: (§1) The maximum concentration in serum (Cmax) was obtained from the original data. […] Intestinal contents were weighted, and homogenized in methanol (100 mg/ml). The homogenate was centrifuged at 14,000 rpm for 10 min at 4° C.
(§2) The mass spectrometer was operated in the turbo ion spray mode with positive ion detection. The turbo ion spray temperature was maintained at 300° C., and a voltage of 4.8 kV was applied to the sprayer needle. N2 was used as the turbo ion spray and nebulizing gas.

[1] = Intestinal tract distribution of RIF and RIFax in mice (intestinal contents, LC-MS/MS); assay type: in vivo; conditions: mouse, in vivo, po, 10 mg/kg
Procedure: as §1, §2

PXR = target: T1, PXR (Mus musculus, UniProt O54915); conditions: dextran sulfate sodium (DSS)-induced BD mouse model; cited from earlier work
T1 construct: host or cells: mice (DSS colitis model)
T1 sequence (O54915 1-431): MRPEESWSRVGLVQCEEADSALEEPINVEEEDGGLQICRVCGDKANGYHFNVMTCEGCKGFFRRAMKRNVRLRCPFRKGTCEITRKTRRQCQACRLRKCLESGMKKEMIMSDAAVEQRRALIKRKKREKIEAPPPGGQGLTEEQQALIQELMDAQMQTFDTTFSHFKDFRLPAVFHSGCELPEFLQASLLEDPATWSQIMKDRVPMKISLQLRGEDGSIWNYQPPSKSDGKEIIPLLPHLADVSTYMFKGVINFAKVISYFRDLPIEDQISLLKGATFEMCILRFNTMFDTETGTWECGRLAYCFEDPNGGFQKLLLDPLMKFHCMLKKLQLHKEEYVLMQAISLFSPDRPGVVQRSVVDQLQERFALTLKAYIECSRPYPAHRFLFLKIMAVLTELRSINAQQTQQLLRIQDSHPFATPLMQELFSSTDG

MRP2 [2] = conditions: rat hepatocytes; cited from earlier work
MRP2 [3] = conditions: mouse PXR ligand; cited from earlier work
CYP3A = assay: Pharmacokinetics of MDZ in hPXR mice pretreated with RIFax; conditions: MDZ 2.5 mg/kg oral; for AUC0-90 min / Cmax / Tmax: serum; for AUC0-90 min ratio RIFax/Cont / Cmax ratio RIFax/Cont / Tmax ratio RIFax/Cont: hPXR mice, RIFax pretreated vs control
Procedure: Blood samples were collected from suborbital veins using heparinized tubes at pre-dose, 5, 10, 20, 30, 60, and 90 min after administration of MDZ. Serum was separated by centrifugation at 8,000 g for 10 min. For MDZ and 1′-OH-MDZ extraction, 50 μl of serum was mixed with 150 μl of phosphate-buffered saline, 200 μl of ethyl acetate, and 200 μl of methyl t-butyl ether. The mixture was centrifuged at 3,000 rpm for 5 min at 4° C. The organic layer was then transferred to a new tube, dried with N2, and reconstituted in 100 μl of 70% aqueous methanol and 30% H2O containing 0.1% formic acid. […] Pharmacokinetic parameters for MDZ and 1′-OH-MDZ were estimated from the plasma concentration-time data by a non-compartmental approach using WinNonlin (Pharsight, Mountain View, Calif.). The area under the serum concentration-time curve (AUC0-90 min) was calculated by the trapezoidal rule. The maximum concentration in serum (Cmax) and its corresponding time (Tmax) were obtained from the original data.

[4] = Cont: hPXR mice without RIFax pretreatment
[5] = hPXR mice pretreated with RIFax 10 mg/kg/day for 3 days

| SMILES | Cmax (in vivo) [nM] | concentration in the small intestine (content) [1] | DSS-induced colitis (PXR) | MRP2 activation (MRP2 [2]) | MRP2 induction (MRP2 [3]) | AUC0-90 min (CYP3A; [4]) [µmol·min/L] | Cmax (CYP3A; [4]) [nM] | Tmax (CYP3A; [4]) [min] | AUC0-90 min (CYP3A; [5]) [µmol·min/L] | Cmax (CYP3A; [5]) [nM] | Tmax (CYP3A; [5]) [min] | AUC0-90 min ratio RIFax/Cont (CYP3A) | Cmax ratio RIFax/Cont (CYP3A) | Tmax ratio RIFax/Cont (CYP3A) |
| --- | --- | --- | --- | --- | --- | --- | --- | --- | --- | --- | --- | --- | --- | --- |
| CO[C@H]1/C=C/O[C@@]2(C)Oc3c(C)c(O)c4c(O)c(c(/C=N/N5CCN(C)CC5)c(O)c4c3C2=O)NC(=O)/C(C)=C\C=C\[C@H](C)[C@H](O)[C@@H](C)[C@@H](O)[C@@H](C)[C@H](OC(C)=O)[C@@H]1C [RIF, 3-(4-Methylpiperazinyliminomethyl)rifamycin SV] | 2750 | below 20 μg/g |  |  |  |  |  |  |  |  |  |  |  |  |
| CC(=O)[C@H]1[C@H](C#N)C[C@H]2[C@@H]3CC=C4C[C@@H](O)CC[C@]4(C)[C@H]3CC[C@@]21C [PCN] |  |  | significantly prevented | activated | not significantly induced |  |  |  |  |  |  |  |  |  |
| OCc1ncc2n1-c1ccc(Cl)cc1C(c1ccccc1F)=NC2 [1′-OH-MDZ, 1′-Hydroxymidazolam] |  |  |  |  |  | 32.4 ± 3.0 | 562 ± 4.9 | 25.0 ± 7.1 | 36.5 ± 4.2 | 823 ± 55.2 | 7.5 ± 3.5 | 1.1 | 1.5 | 0.3 |
| Cc1ncc2n1-c1ccc(Cl)cc1C(c1ccccc1F)=NC2 [MDZ, midazolam] |  |  |  |  |  | 8.0 ± 0.4 | 477 ± 40.3 | 10.0 ± 0.0 | 8.9 ± 0.7 | 383 ± 19.1 | 12.5 ± 10.6 | 1.1 | 0.8 | 1.3 |
